Data published in publication PMC4103896, “Characterization and Evolutionary Implications of the Triad Asp-Xxx-Glu in Group II Phosphopantetheinyl Transferases” (PLoS ONE, 2014).

What was measured:
Format in all cases: biochemical
[1] = target: T1, Sppt (Synechocystis sp. PCC 6803, UniProt Q55185, Q112E); assay: in vitro phosphopantetheinylation of sch FAS ACP, HPLC; conditions: 2 mM CoA, 200 uM sch FAS ACP, 20 uM Sppt, 1.25 mM MgCl2, pH 7.5, 25 °C, 30 min
T1 construct: gene slr0495; full-length
T1 sequence (Q55185 whole entry Q112E): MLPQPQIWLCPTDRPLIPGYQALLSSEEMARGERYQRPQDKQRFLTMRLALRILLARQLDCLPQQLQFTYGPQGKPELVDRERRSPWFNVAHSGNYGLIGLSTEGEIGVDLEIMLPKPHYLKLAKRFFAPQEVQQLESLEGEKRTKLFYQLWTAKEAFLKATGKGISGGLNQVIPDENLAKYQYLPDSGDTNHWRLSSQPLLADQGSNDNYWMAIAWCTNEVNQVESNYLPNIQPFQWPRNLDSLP

[2] = target: T2, Sppt (Synechocystis sp. PCC 6803, UniProt Q55185); assay: as above; conditions: 2 mM CoA, 200 uM sch FAS ACP, 20 uM Sppt, 1.25 mM MgCl2, pH 7.5, 25 °C, 30 min
T2 construct: gene slr0495; full-length
T2 sequence (Q55185 whole entry): as the sequence (Q55185 whole entry Q112E) above, with E112Q counted along it

[3] = target: T3, SchPPT (Streptomyces chattanoogensis, UniProt H9N836); assay: in vitro phosphopantetheinylation of scn ACP0-2, LC-MS; conditions: 2 mM CoA, 200 uM scn ACP0-2, 20 uM PPTase, 1.25 mM MgCl2, pH 7.5, 25 °C, 30 min
T3 construct: full-length group II (Sfp-type) PPTase; SchPPT cloned in pET28a (pHJ0024), E. coli; N-terminal His6 stated for the mutants
T3 sequence (H9N836 entry or part of it): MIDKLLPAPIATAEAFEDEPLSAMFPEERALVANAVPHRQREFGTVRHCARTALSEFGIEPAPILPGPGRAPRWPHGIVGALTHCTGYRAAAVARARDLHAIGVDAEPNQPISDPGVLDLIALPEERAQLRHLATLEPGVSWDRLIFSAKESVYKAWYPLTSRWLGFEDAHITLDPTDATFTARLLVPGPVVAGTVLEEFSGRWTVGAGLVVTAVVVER

## CC(C)(COP(=O)(O)OP(=O)(O)OC[C@H]1O[C@@H](n2cnc3c(N)ncnc32)[C@H](O)[C@@H]1OP(=O)(O)O)[C@@H](O)C(=O)NCCC(=O)NCCS [CoA]
[1]
  in vitro phosphopantetheinylation of sch FAS ACP, HPLC: After incubation of sch FAS ACP with CoA in the presence of SpptQ112E
[2]
  in vitro phosphopantetheinylation of sch FAS ACP, HPLC: After incubation of sch FAS ACP with CoA in the presence of Sppt
[3]
  in vitro phosphopantetheinylation of scn ACP0-2, LC-MS: only wild type SchPPT but neither of the two mutants phosphopantetheinylated scn ACP0-2
